Assay results published in a compilation of properties of binary mixtures (doi:10.1016/j.molliq.2021.118393).

Test: xn = mol fraction of the nth substance listed
Conditions: 100 kPa

O=C(O)CCl + CCCC[N+](CCCC)(CCCC)CCCC.O=S(=O)([O-])O
Conditions	electrical conductivity, x2 = 0.333 [S/m]	electrical conductivity, x2 = 0.5 [S/m]	speed of sound, x2 = 0.333 [m/s]	speed of sound, x2 = 0.5 [m/s]	viscosity, x2 = 0.333 [mPa·s]	viscosity, x2 = 0.5 [mPa·s]
293.15 K	0.012	0.0017	1539.9	1623.8	–	–
298.15 K	0.0189	0.0032	1523.1	1594.7	–	–
303.15 K	–	0.0053	–	1569.4	–	–
308.15 K	–	0.0037	–	1547	–	–
313.15 K	0.0508	–	1475.5	–	176.3	–
318.15 K	0.0669	0.0143	1460.9	1509	132.2	769
323.15 K	0.0861	0.0226	1446.5	1492.3	101.9	546
328.15 K	0.108	0.0306	1432.5	1476.3	81.5	396
333.15 K	0.133	–	1418.6	–	64.29	–

O=C(O)CCl + CCC[N+](CCC)(CCC)CCC.[Br-]
x2 = 0.333
Conditions	electrical conductivity [S/m]	speed of sound [m/s]	viscosity [mPa·s]
293.15 K	0.0435	1550.2	178.6
298.15 K	0.0673	1535.1	119.4
303.15 K	0.0981	1520.3	84.3
313.15 K	0.177	1491.4	45.76
318.15 K	0.228	1477.4	34.88
323.15 K	0.284	1463.4	27.18
333.15 K	0.407	1436.1	17.67
